Assay results from patent US20030071268A1, “Optical data storage medium containing a diaza hemicyanine dye as the light-absorbing compound in the information layer” (priority 2001, published 2003).

Experiments:
Assay type in all cases: physicochemical
[1] = absorption spectra measured in solution
Protocol: (§1) For a recordable optical data storage medium according to the invention which is recorded on and read using light from a blue laser, such diaza hemicyanine dyes are preferred whose absorption maximum λmax2 is in the range from 420 to 550 nm, wherein the wavelength λ½ at which the extinction on the short-wavelength slope of the absorption maximum of the wavelength λmax2 is half the extinction value at λmax2, and the wavelength λ 1/10, at which the extinction on the short-wavelength slope of the absorption maximum of the wavelength λmax2 is a tenth of the extinction value at λmax2, are preferably in each case no further than 50 nm away from each other.
as §1, with “a red” for “a blue”, “from 500” for “from 420”, “to 650” for “to 550”, “the long-wavelength” for “the short-wavelength”, “50 mn” for “50 nm”, “other. […]” for “other.”
The absorption spectra are, for example, measured in solution.

[2] = solubility in TFP (2,2,3,3-tetrafluoropropanol)
film appearance = assay: film appearance
Description: In addition to the above-mentioned optical properties, the recordable information layer consisting of light-absorbing organic substances must have a morphology which is as amorphous as possible, in order to keep the noise signal during recording or reading as small as possible. For this purpose it is particularly preferable, when applying the substances by spin-coating from a solution or by vapour deposition and/or sublimation, to prevent crystallization of the light-absorbing substances during the subsequent top-coating with metallic or dielectric layers in vacuo.

ε ([1]; Example 1): 30100 mol⁻¹ cm⁻¹ | λmax ([1]; in methanol): 592 nm | Solubility [2]: > 2% | film appearance (film appearance): a glassy film
SMILES: CC(C)N(c1n[n+](C)c(/N=N/c2sc(N3CCOCC3)nc2-c2ccccc2)s1)C(C)C [Example 1]
